Measured values as given in article PMC12037037 (Proceedings of the National Academy of Sciences of the …, 2025).

Tested on: C57BL/6J mice
Assay: Sucrose preference test (SPT) after chronic CORT
Type: in vivo
Conditions: 1 mg/kg IP, two injections 48 h apart, CORT-sensitive mice; main effect of treatment P = 0.0364
Description: remained housed in groups of three for the remainder of the study. All rats were acclimated to the colony room for up to one week prior to dosing. During the period of acclimation, rats were examined and handled daily, and weighed to assure adequate health and suitability. The room temperature was maintained between 20 °C and 23 °C with a relative humidity of 30%–70%. Lab Rodent Diet 5001 (W.F. Fisher, Cat # 11015) and water were provided ad libitum. Animals were randomly assigned across treatment groups. All testing was performed during the light phase of the light/dark cycle. Behavioral testing was conducted according to established protocols approved by the IACUC committee and PGI Standard Operation Procedures (SOP). […] All animals were carefully monitored to ensure their safety in the swim test and any animal unable to maintain a posture with its nose above water was immediately removed from the water and not used further in the study. […] This test lasted for 5 min and was video recorded. A blinded experimenter manually scored the videos for swimming, climbing, and immobility behavior. Scoring of the forced swim test was performed by trained technicians using a time sampling technique in which the animal in the video recorded test was viewed every 5 seconds and the behavior observed was noted (e.g., immobile, swimming, or climbing). […]

CCN(CC)C(=O)[C@@H]1C=C2c3cccc4ccn(c34)C[C@H]2N(C)C1 [(+)-JRT]
Effect on CORT-induced anhedonia (sucrose preference): rescued CORT-induced anhedonia
